Measured values from patent US12558317B2, “Compositions and methods for treating disorders ameliorated by muscarinic receptor activation” (Karuna Therapeutics, Inc., priority 2018, dated 2026).

Columns and labels:
[1] = Mutagenic potential
[2] = system: normal healthy volunteers; assay: KAR-001 Phase I study: safety and tolerability, cholinergic adverse events; type: in vivo, human
[3] = KAR-001 Phase I study: xanomeline pharmacokinetics; conditions: human, in vivo, 225 mg daily; for AUC / Cmax: oral, geometric mean; for AUC: Xanomeline AUC0-tau; for Cmax: Xanomeline Cmax
Protocol: A Phase I, double-blind, randomized multiple-dose pilot study was conducted with xanomeline administered alone compared to xanomeline administered with trospium chloride in normal healthy volunteers. […]

[4] = 26-week study of Alzheimer's disease; cited from earlier work
[5] = KAR-001 Safety Population, cholinergic TEAE, number of individual occurrences
[6] = KAR-001 Safety Population, cholinergic TEAE, number of subjects
[7] = KAR-001 Safety Population, cholinergic TEAE, percentage of subjects in arm

CCCCCCOc1nsnc1-c1ccc[n+](C)c1 [Compound V]
mutagenic potential [1]: negative

CCCCCCOc1nsnc1C1=CCCN(C)C1 [xanomeline]
AE leading to discontinuation (D/C), # events ([2]; KAR-001): 2
AE leading to discontinuation (D/C), % ([2]; KAR-001): 6.1%
Any SAE, % ([2]; KAR-001): (0.0) %
Any clinically significant TEAE, # events ([2]; KAR-001): 5
Any clinically significant TEAE, % ([2]; KAR-001): 15.2%
Any study drug-related TEAE, # events ([2]; KAR-001): 92
Any study drug-related TEAE, % ([2]; KAR-001): 69.7%
Diarrhea, # of events ([2]; KAR-001): 8
Diarrhea, % of subjects ([2]; KAR-001): 21.2%
Diarrhea, n subjects ([2]; KAR-001): 7
Max Severity of TEAE: Mild, % ([2]; KAR-001): (66.7) N/A %
Max Severity of TEAE: Moderate, % ([2]; KAR-001): (15.2) N/A %
Max Severity of TEAE: Severe, % ([2]; KAR-001): (0.0) %
Max severity of study drug-related TEAE: Mild, % ([2]; KAR-001): (57/6) N/A
Max severity of study drug-related TEAE: Moderate, % ([2]; KAR-001): (12.1) N/A %
Max severity of study drug-related TEAE: Severe, % ([2]; KAR-001): (0.0) N/A %
Nausea, # of events ([2]; KAR-001): 11
Nausea, % of subjects ([2]; KAR-001): 24.2%
Nausea, n subjects ([2]; KAR-001): 8
Salivation (salivary hypersecretion), % of subjects ([2]; KAR-001): 36.4%
Salivation, # of events ([2]; KAR-001): 16
Salivation, n subjects ([2]; KAR-001): 12
Study drug related AE leading to D/C, # events ([2]; KAR-001): 1
Study drug related AE leading to D/C, % ([2]; KAR-001): 3.0%
Subjects with any TEAE, # events ([2]; KAR-001): 108
Subjects with any TEAE, % ([2]; KAR-001): 81.8%
Sweating (hyperhidrosis), % of subjects ([2]; KAR-001): 48.5%
Sweating, # of events ([2]; KAR-001): 24
Sweating, n subjects ([2]; KAR-001): 16
Vomiting, # of events ([2]; KAR-001): 5
Vomiting, % of subjects ([2]; KAR-001): 15.2%
Vomiting, n subjects ([2]; KAR-001): 5
Cholinergic adverse events: Any TEAEs, # of events ([2]; KAR-001, healthy volunteers): 64
Cholinergic adverse events: Any TEAEs, n subjects ([2]; KAR-001, healthy volunteers): 21
Cholinergic adverse events: Any TEAEs, % of subjects ([2]; KAR-001, healthy volunteers, listed as Xanomeline + placebo): 63.6%
Cholinergic adverse events: Any TEAEs, % of subjects ([2]; KAR-001, healthy volunteers, listed as xanomeline+placebo): 63%
Diarrhea, # occurrences [2, 5]: 8
Gastrointestinal disorders, # occurrences [2, 5]: 40
Hyperhidrosis, # occurrences [2, 5]: 24
Nausea, # occurrences [2, 5]: 11
Salivary hypersecretion, # occurrences [2, 5]: 16
Skin and subcutaneous tissue disorders, # occurrences [2, 5]: 24
Vomiting, # occurrences [2, 5]: 5
Diarrhea, n subjects [2, 6]: 7
Gastrointestinal disorders, n subjects [2, 6]: 18
Hyperhidrosis, n subjects [2, 6]: 16
Nausea, n subjects [2, 6]: 8
Salivary hypersecretion, n subjects [2, 6]: 12
Skin and subcutaneous tissue disorders, n subjects [2, 6]: 16
Vomiting, n subjects [2, 6]: 5
Diarrhea, % of subjects [2, 7]: 20.6%
Gastrointestinal disorders, % of subjects [2, 7]: 52.9%
Hyperhidrosis, % of subjects [2, 7]: 47.1%
Nausea, % of subjects [2, 7]: 23.5%
Salivary hypersecretion, % of subjects [2, 7]: 35.3%
Skin and subcutaneous tissue disorders, % of subjects [2, 7]: 47.1%
Vomiting, % of subjects [2, 7]: 14.7%
Subjects with any TEAEs (cholinergic), # occurrences ([2]; KAR-001 Safety Population, number of individual occurrences): 64
Subjects with any TEAEs (cholinergic), n subjects ([2]; KAR-001 Safety Population, number of subjects): 21
Subjects with any TEAEs (cholinergic), % of subjects ([2]; KAR-001 Safety Population, percentage of subjects in arm): 61.8%
Tmax ([3]; KAR-001 Day 3, median): 2 h
AUC ([3]; KAR-001 Day 3): 12.6 ng·h/mL
AUC ([3]; KAR-001 Day 9): 24.8 ng·h/mL
Cmax ([3]; KAR-001 Day 3): 2.95 ng/mL
Cmax ([3]; KAR-001 Day 9): 4.57 ng/mL
dropout rate [4]: 56%
